Tests used:
[1] = Inhibition of SGK
[2] = target: RAC-beta serine/threonine-protein kinase (Homo sapiens) (UniProt P31751); test: Inhibition of human recombinant Akt2
[3] = target: RAC-alpha serine/threonine-protein kinase (Homo sapiens) (UniProt P31749); test: Inhibition of human recombinant Akt1
[4] = target: RAC-alpha serine/threonine-protein kinase (Homo sapiens) (UniProt P31749); test: Inhibition of Akt1 in human C33a cells; format: cell-based
[5] = target: RAC-beta serine/threonine-protein kinase (Homo sapiens) (UniProt P31751); test: Inhibition of Akt2 in human C33a cells; format: cell-based
[6] = target: RAC-gamma serine/threonine-protein kinase (Homo sapiens) (UniProt Q9Y243); test: Inhibition of human recombinant Akt3
Sequence of RAC-gamma serine/threonine-protein kinase (Homo sapiens) (Q9Y243 whole entry): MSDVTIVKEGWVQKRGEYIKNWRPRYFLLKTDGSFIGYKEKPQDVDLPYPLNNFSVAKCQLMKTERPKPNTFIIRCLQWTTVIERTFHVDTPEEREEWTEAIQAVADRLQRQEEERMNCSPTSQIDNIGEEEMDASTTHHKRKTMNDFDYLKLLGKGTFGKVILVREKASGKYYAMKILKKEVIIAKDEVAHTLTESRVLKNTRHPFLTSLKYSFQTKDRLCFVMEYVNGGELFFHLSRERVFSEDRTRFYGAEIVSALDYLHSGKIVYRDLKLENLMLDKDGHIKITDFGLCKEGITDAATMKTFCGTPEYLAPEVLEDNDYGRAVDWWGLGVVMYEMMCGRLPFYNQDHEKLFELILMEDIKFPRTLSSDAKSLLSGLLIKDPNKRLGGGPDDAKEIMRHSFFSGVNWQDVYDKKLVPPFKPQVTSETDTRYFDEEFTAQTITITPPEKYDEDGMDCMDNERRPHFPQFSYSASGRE

[7] = Volume of distribution at steady state in dog at 0.25 mg/kg, iv; format: ADME, organism-based, Canis lupus familiaris; parameters: dose 0.25 mg/kg, route intravenous; conditions: in vivo, read-out: Vdss
[8] = Inhibition of PKC
[9] = Half life in dog at 0.25 mg/kg, iv; format: ADME, organism-based, Canis lupus familiaris; parameters: dose 0.25 mg/kg, route intravenous; conditions: in vivo
[10] = target: Protein kinase C alpha type (Homo sapiens) (UniProt P17252); test: Inhibition of PKCalpha
[11] = Inhibition of PKA
[12] = Clearance in dog at 0.25 mg/kg, iv; format: ADME, organism-based, Canis lupus familiaris; parameters: dose 0.25 mg/kg, route intravenous; conditions: in vivo

Sequence of RAC-alpha serine/threonine-protein kinase (Homo sapiens) (P31749 whole entry): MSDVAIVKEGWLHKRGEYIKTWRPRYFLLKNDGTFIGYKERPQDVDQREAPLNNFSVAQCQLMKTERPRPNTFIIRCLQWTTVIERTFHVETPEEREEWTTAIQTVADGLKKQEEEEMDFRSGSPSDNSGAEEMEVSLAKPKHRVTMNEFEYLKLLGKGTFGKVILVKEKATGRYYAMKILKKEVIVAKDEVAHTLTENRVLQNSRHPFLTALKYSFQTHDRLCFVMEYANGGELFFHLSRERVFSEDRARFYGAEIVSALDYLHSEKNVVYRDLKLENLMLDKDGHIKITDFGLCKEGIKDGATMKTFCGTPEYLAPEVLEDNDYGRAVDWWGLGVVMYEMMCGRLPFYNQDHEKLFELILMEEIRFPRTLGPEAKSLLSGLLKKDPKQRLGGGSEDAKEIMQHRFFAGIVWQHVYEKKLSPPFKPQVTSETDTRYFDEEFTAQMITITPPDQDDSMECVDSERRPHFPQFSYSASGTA
Sequence of RAC-beta serine/threonine-protein kinase (Homo sapiens) (P31751 whole entry): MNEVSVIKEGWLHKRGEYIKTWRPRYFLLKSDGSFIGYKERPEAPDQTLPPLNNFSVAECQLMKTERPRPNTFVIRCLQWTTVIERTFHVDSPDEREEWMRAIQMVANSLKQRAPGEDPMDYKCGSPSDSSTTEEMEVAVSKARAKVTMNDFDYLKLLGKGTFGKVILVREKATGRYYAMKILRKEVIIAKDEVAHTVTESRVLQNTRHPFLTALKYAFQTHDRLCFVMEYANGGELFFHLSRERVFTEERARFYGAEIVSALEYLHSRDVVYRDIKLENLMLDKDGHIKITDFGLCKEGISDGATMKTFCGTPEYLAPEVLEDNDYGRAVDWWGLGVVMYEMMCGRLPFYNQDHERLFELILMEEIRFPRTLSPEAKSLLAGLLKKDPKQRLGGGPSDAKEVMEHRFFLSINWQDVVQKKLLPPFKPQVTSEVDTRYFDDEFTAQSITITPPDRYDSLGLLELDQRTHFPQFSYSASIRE

Row | Structure (SMILES) | IC50 [1] [µM] | Activity [2] [nM] | Activity [3] [nM] | Activity [4] [nM] | Activity [5] [nM] | Activity [6] [µM] | Vd [7] [L/kg] | IC50 [8] [µM] | half-life [9] [h] | IC50 [10] [µM] | IC50 [11] [µM] | clearance [12] [mL/min/kg]
1 | Nc1nnc(-c2cnc(-c3ccc(CN4CCC(n5cc(-c6cnccn6)cn5)CC4)cc3)c(-c3ccccc3)c2)s1 | > 50 | 51 | 172 | 1380 | 2030 | – | – | – | – | – | – | –
2 | N#Cc1cnc(-c2ccc(CN3CCC(n4c(=O)[nH]c5ccccc54)CC3)cc2)c(-c2ccccc2)c1 | – | 3140 | 762 | > 50000 | > 50000 | > 50 | – | – | – | – | – | –
3 | Nc1nnc(-c2cnc(-c3ccc(CN4CCC(n5c(=O)[nH]c6ncccc65)CC4)cc3)c(-c3ccccc3)c2)s1 | > 50 | 73 | 434 | 12600 | 3960 | – | – | – | – | – | – | –
4 | Nc1nnc(-c2cnc(-c3ccc(CN4CCC(n5cc(-c6ccccn6)cn5)CC4)cc3)c(-c3ccccc3)c2)s1 | > 50 | 90 | 214 | 1350 | 1350 | – | – | – | – | – | – | –
5 | Nc1nnc(-c2cnc(-c3ccc(CN4CCC(c5cc(-c6ccncc6)[nH]n5)CC4)cc3)c(-c3ccccc3)c2)s1 | > 50 | 38 | 123 | 407 | 153 | – | – | – | – | – | – | –
6 | Nc1ncnc2c1cnn2C1CCN(Cc2ccc(-c3ncc(-c4nccs4)cc3-c3ccccc3)cc2)CC1 | > 50 | 64 | 264 | 1650 | 3240 | – | – | – | – | – | – | –
7 | Nc1nnc(-c2cnc(-c3ccc(CN4CCC(c5cc(-c6ccccn6)[nH]n5)CC4)cc3)c(-c3ccccc3)c2)s1 | > 50 | 28 | 95 | 734 | 300 | – | – | – | – | – | – | –
8 | Nc1ncnc2c1cnn2C1CCN(Cc2ccc(-c3ncc(-c4ccccn4)cc3-c3ccccc3)cc2)CC1 | – | 370 | 1630 | 10000 | 8110 | – | – | – | – | – | – | –
9 | Nc1nnc(-c2cnc(-c3ccc(CNCCC(=O)c4ccccc4N)cc3)c(-c3ccccc3)c2)s1 | – | 30 | 114 | 618 | 472 | – | – | – | – | – | – | –
10 | Nc1ncnc2c1cnn2C1CCN(Cc2ccc(-c3ncc(-c4nc[nH]n4)cc3-c3ccccc3)cc2)CC1 | > 50 | 101 | 182 | 890 | 666 | – | – | – | – | – | – | –
11 | Nc1ncnc2c1cnn2C1CCN(Cc2ccc(-c3ncc(-c4ncon4)cc3-c3ccccc3)cc2)CC1 | > 50 | 121 | 180 | 288 | 1060 | – | – | – | – | – | – | –
12 | O=c1[nH]c2ccccc2n1C1CCN(Cc2ccc(-c3ncc(-c4nnn[nH]4)cc3-c3ccccc3)cc2)CC1 | – | 150 | 273 | > 50000 | > 50000 | > 50 | – | – | – | – | – | –
13 | Nc1nnc(-c2cnc(-c3ccc(CN4CCC(n5ncc6c(N)ncnc65)CC4)cc3)c(-c3ccccc3)c2)s1 | > 50 | 22 | 126 | 621 | 416 | – | 0.41 | > 10 | 3.62 | > 10 | > 10 | 1.37
14 | Nc1ncnc2c1cnn2C1CCN(Cc2ccc(-c3ncc(-c4ncccn4)cc3-c3ccccc3)cc2)CC1 | > 50 | 62 | 306 | 1950 | 3460 | – | – | – | – | – | – | –
15 | Nc1nnc(-c2cnc(-c3ccc(CN4CCC(c5n[nH]c(-c6ccccn6)n5)CC4)cc3)c(-c3ccccc3)c2)s1 | > 50 | 22 | 85 | 516 | 330 | – | – | – | – | – | – | –
16 | Nc1ncnc2c1ncn2C1CCN(Cc2ccc(-c3ncc(-c4nnn[nH]4)cc3-c3ccccc3)cc2)CC1 | – | 105 | 210 | > 50000 | > 50000 | > 50 | – | – | – | – | – | –

— ChEMBL document CHEMBL1142279, “Optimization of 2,3,5-trisubstituted pyridine derivatives as potent allosteric Akt1 and Akt2 inhibitors” (Bioorg Med Chem Lett, 2008)
